For test [1], the target named is T1, Alpha trans-inducing protein (Human alphaherpesvirus 1) (UniProt A0A5J6DW59). Description: Selectivity interaction (Reporter gene assay) EUB0001136a UL48. Also on record: recommended concentration 1 uM.
Test [2] concerns the target Nuclear receptor ROR-gamma (Homo sapiens) (UniProt P51449). In words: Selectivity interaction (Reporter gene assay) EUB0001136a RORC. Particulars: screened at recom. conc., Selectivity number of off-targets 3.0, Selectivity number of targets 19.0, Source Knowledge inhouse. Details: recommended concentration 1 uM. In general terms: A reporter such as luciferase makes a cellular process visible.

Test [3] addresses Nuclear receptor subfamily 4immunitygroup A member 1 (Homo sapiens) (UniProt P22736). In words: Selectivity interaction (Reporter gene assay) EUB0001136a NR4A1. Details: recommended concentration 1 uM.
The target of test [4] is T2, Hepatocyte nuclear factor 4-alpha (Homo sapiens) (UniProt P41235).
T2 sequence (whole entry): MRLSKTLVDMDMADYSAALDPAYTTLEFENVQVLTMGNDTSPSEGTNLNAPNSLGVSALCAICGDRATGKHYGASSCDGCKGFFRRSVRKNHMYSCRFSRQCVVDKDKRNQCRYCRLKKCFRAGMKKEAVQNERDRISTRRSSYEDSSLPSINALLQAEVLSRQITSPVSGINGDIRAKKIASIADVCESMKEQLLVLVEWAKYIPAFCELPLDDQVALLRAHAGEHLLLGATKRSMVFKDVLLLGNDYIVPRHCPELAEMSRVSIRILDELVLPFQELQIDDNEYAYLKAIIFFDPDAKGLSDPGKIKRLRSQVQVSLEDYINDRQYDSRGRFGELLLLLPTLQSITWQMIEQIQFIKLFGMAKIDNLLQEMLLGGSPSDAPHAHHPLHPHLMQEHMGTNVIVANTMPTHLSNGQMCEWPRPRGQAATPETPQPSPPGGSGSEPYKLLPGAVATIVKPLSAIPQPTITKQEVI
In words: Selectivity interaction (Reporter gene assay) EUB0001136a HNF4A. Also on record: recommended concentration 1 uM.

In test [5] the target is Nuclear receptor ROR-beta (Homo sapiens) (UniProt Q92753). In words: Selectivity interaction (Reporter gene assay) EUB0001136a RORB. Details: recommended concentration 1 uM. The settings on record: screened at recom. conc., Selectivity number of off-targets 3.0, Selectivity number of targets 19.0, Source Knowledge inhouse.
Chain of Nuclear receptor ROR-beta (Homo sapiens) (Q92753 whole entry): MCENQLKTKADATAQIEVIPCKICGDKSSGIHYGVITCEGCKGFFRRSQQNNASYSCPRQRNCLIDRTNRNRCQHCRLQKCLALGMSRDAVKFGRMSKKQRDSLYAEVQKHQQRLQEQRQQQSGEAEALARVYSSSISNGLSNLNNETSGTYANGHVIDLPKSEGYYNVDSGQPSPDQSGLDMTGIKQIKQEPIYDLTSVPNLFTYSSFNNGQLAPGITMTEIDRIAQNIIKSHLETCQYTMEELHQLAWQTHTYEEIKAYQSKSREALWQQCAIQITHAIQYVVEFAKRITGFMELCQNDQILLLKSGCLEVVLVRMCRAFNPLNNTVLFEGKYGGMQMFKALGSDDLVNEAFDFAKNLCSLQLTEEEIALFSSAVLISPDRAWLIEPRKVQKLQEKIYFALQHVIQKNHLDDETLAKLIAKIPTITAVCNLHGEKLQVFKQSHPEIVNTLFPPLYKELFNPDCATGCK
In test [6] the target is Nuclear receptor ROR-alpha (Homo sapiens) (UniProt P35398). In words: Selectivity interaction (Reporter gene assay) EUB0001136a RORA. Also on record: recommended concentration 1 uM. Particulars: screened at recom. conc., Selectivity number of off-targets 3.0, Selectivity number of targets 19.0, Source Knowledge inhouse.
Chain of Nuclear receptor ROR-alpha (Homo sapiens) (P35398 whole entry): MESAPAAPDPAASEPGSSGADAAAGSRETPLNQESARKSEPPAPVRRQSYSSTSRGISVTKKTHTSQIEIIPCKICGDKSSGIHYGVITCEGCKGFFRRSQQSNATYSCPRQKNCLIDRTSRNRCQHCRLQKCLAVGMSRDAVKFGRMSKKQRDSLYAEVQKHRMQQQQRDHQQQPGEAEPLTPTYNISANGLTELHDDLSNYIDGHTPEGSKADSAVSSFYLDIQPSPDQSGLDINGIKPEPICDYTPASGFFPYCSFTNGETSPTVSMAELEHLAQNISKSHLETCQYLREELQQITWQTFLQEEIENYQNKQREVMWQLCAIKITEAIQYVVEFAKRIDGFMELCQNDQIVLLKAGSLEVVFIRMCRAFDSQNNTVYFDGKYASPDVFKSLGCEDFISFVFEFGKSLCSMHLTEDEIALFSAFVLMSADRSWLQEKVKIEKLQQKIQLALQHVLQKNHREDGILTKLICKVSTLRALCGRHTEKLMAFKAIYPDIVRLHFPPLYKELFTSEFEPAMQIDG
Test [7] addresses Nuclear receptor subfamily 2 group E member 1 (Homo sapiens) (UniProt Q9Y466). Description: Selectivity interaction (Reporter gene assay) EUB0001136a NR2E1. Also on record: recommended concentration 1 uM. Particulars: screened at recom. conc., Selectivity number of off-targets 2.0, Selectivity number of targets 5.0, Source Knowledge inhouse.
The target of test [8] is T3, Nuclear receptor subfamily 2 group C member 1 (Homo sapiens) (UniProt P13056).
T3 sequence (whole entry): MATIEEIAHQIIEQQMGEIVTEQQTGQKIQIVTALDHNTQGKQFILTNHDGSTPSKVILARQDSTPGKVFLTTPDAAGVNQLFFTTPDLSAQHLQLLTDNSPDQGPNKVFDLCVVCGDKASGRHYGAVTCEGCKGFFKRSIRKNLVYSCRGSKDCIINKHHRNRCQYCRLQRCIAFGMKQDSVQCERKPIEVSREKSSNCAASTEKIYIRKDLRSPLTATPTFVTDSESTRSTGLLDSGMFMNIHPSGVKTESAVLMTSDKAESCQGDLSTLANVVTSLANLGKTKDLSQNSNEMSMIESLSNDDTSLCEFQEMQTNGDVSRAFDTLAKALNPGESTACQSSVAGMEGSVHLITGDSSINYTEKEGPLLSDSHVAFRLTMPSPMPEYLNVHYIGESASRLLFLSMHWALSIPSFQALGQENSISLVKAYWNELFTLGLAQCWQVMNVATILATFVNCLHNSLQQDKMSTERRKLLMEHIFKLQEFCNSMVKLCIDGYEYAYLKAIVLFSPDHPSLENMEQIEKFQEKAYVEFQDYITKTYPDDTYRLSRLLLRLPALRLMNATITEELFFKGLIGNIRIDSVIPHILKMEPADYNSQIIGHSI
In words: Selectivity interaction (Reporter gene assay) EUB0001136a NR2C1. Also on record: recommended concentration 1 uM.

The target of test [9] is Steroidogenic factor 1 (Homo sapiens) (UniProt Q13285). Description: Selectivity interaction (Reporter gene assay) EUB0001136a NR5A1. Details: recommended concentration 1 uM. The settings on record: screened at recom. conc., Selectivity number of off-targets 2.0, Selectivity number of targets 5.0, Source Knowledge inhouse.
Chain of Steroidogenic factor 1 (Homo sapiens) (Q13285 whole entry): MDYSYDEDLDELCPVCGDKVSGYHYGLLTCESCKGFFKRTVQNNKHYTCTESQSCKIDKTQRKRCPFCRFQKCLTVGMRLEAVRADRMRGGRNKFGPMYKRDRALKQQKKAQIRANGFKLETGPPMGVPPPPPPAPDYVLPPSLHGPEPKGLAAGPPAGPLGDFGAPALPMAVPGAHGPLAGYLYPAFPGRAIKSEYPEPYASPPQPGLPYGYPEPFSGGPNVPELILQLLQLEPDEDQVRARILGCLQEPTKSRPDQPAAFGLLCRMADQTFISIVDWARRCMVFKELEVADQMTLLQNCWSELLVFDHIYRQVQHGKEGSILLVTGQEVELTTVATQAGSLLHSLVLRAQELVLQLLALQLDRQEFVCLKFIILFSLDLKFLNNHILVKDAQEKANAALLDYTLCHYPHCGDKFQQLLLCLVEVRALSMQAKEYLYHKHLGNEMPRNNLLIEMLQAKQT
The target of test [10] is T4, Retinoic acid receptor RXR-alpha (Homo sapiens) (UniProt P19793).
T4 sequence (whole entry): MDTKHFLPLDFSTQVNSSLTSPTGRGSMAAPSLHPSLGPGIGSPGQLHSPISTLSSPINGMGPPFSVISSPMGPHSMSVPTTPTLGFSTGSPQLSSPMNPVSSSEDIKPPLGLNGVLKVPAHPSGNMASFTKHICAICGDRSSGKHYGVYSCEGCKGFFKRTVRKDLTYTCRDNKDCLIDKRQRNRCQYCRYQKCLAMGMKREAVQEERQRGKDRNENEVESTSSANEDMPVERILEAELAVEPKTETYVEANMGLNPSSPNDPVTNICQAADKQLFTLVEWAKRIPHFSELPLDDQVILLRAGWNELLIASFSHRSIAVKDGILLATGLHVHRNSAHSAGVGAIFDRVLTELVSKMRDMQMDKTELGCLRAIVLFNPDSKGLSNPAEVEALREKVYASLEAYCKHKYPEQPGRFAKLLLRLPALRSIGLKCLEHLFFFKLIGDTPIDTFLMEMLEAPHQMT
Description: Selectivity interaction (Reporter gene assay) EUB0000585a RXRA. Details: recommended concentration 1 uM. Particulars: reference bexarotene 1 uM, Selectivity number of off-targets 0.0, Selectivity number of targets 1.0, Source Knowledge inhouse.

For test [11], the target named is T3, Nuclear receptor subfamily 2 group C member 1 (Homo sapiens). Description: Selectivity interaction (Reporter gene assay) EUB0000585a NR2C1. Details: recommended concentration 1 uM.
The target of test [12] is T1, Alpha trans-inducing protein (Human alphaherpesvirus 1). Description: Selectivity interaction (Reporter gene assay) EUB0000585a UL48. Details: recommended concentration 1 uM.
In test [13] the target is Steroidogenic factor 1 (Homo sapiens) (UniProt Q13285). In words: Selectivity interaction (Reporter gene assay) EUB0000585a NR5A1. Also on record: recommended concentration 1 uM.
For test [14], the target named is Nuclear receptor subfamily 4immunitygroup A member 1 (Homo sapiens) (UniProt P22736). Description: Selectivity interaction (Reporter gene assay) EUB0000585a NR4A1. Details: recommended concentration 1 uM.
Chain of Nuclear receptor subfamily 4immunitygroup A member 1 (Homo sapiens) (P22736 whole entry): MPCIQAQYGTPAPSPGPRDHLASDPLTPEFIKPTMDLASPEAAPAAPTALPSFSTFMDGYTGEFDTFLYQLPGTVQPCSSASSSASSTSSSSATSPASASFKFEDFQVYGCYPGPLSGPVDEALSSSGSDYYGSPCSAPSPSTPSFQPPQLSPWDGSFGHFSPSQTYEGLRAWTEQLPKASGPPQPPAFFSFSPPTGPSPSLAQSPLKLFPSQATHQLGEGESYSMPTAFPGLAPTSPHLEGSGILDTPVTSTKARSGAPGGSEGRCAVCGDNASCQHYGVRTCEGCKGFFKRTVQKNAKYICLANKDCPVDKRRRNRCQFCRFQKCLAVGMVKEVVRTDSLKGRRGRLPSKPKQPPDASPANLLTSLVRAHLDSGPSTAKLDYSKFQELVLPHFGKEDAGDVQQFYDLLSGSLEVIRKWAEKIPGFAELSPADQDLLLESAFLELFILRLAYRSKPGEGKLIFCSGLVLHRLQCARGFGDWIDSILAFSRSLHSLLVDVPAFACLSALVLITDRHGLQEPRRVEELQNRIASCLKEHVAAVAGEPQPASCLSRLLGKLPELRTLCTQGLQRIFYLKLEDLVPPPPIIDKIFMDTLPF
In test [15] the target is Nuclear receptor subfamily 2 group E member 1 (Homo sapiens) (UniProt Q9Y466). Description: Selectivity interaction (Reporter gene assay) EUB0000585a NR2E1. Also on record: recommended concentration 1 uM.
Chain of Nuclear receptor subfamily 2 group E member 1 (Homo sapiens) (Q9Y466 whole entry): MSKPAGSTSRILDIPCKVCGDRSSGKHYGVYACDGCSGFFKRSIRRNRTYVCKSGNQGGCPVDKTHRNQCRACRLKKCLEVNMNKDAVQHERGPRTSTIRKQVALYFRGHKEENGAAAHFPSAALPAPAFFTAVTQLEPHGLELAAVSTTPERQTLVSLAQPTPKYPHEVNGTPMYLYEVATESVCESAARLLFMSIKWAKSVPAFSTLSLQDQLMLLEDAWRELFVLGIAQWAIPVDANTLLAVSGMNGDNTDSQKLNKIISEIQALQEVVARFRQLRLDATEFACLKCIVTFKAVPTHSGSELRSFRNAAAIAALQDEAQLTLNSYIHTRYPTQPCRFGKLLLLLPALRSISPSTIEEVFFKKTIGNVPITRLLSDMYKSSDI
Test [16] has as its target T2, Hepatocyte nuclear factor 4-alpha (Homo sapiens). Description: Selectivity interaction (Reporter gene assay) EUB0000585a HNF4A. Details: recommended concentration 1 uM.
The target in test [17] is SRSF protein kinase 1 (Homo sapiens) (UniProt Q96SB4). In words: Selectivity interaction (Kinase panel (binding assay)) EUB0001089a SRPK1. Also on record: recommended concentration 1 uM. The settings on record: at 25 µM.
Chain of SRSF protein kinase 1 (Homo sapiens) (Q96SB4 whole entry): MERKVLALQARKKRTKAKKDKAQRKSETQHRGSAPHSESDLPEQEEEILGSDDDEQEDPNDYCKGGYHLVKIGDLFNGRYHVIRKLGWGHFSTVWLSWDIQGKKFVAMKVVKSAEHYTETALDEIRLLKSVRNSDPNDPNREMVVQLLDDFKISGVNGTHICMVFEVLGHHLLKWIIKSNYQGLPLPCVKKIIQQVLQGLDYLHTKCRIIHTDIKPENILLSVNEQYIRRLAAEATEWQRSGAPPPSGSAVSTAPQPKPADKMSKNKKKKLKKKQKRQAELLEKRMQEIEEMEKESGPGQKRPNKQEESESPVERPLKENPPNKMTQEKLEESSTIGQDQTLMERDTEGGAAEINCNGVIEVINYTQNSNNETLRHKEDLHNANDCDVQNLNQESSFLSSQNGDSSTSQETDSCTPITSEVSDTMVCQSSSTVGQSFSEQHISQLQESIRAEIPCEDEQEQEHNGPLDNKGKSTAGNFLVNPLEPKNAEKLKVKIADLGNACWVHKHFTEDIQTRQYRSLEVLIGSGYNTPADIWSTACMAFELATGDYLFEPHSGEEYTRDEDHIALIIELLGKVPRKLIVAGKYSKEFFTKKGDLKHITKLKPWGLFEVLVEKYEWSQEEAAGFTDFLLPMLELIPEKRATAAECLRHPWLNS
Test [18] has as its target T3, Nuclear receptor subfamily 2 group C member 1 (Homo sapiens). In words: Selectivity interaction (Reporter gene assay) EUB0001081a NR2C1. Also on record: recommended concentration 10 uM.
Test [19] addresses Nuclear receptor subfamily 2 group E member 1 (Homo sapiens) (UniProt Q9Y466). In words: Selectivity interaction (Reporter gene assay) EUB0001081a NR2E1. Also on record: recommended concentration 10 uM.
Test [20] addresses Nuclear receptor subfamily 4immunitygroup A member 1 (Homo sapiens) (UniProt P22736). Description: Selectivity interaction (Reporter gene assay) EUB0001081a NR4A1. Details: recommended concentration 10 uM.
In test [21] the target is T2, Hepatocyte nuclear factor 4-alpha (Homo sapiens). Description: Selectivity interaction (Reporter gene assay) EUB0001081a HNF4A. Also on record: recommended concentration 10 uM.
Test [22] has as its target T1, Alpha trans-inducing protein (Human alphaherpesvirus 1). In words: Selectivity interaction (Reporter gene assay) EUB0001081a UL48. Details: recommended concentration 10 uM.
Test [23] deals with T4, Retinoic acid receptor RXR-alpha (Homo sapiens). In words: Selectivity interaction (Reporter gene assay) EUB0001081a RXRA. Also on record: recommended concentration 10 uM. The settings on record: reference bexarotene 1 uM, Selectivity number of off-targets 0.0, Selectivity number of targets 1.0, Source Knowledge inhouse.
Test [24] has as its target Steroidogenic factor 1 (Homo sapiens) (UniProt Q13285). Description: Selectivity interaction (Reporter gene assay) EUB0001081a NR5A1. Details: recommended concentration 10 uM.

T1 sequence (A0A5J6DW59 as listed by the source): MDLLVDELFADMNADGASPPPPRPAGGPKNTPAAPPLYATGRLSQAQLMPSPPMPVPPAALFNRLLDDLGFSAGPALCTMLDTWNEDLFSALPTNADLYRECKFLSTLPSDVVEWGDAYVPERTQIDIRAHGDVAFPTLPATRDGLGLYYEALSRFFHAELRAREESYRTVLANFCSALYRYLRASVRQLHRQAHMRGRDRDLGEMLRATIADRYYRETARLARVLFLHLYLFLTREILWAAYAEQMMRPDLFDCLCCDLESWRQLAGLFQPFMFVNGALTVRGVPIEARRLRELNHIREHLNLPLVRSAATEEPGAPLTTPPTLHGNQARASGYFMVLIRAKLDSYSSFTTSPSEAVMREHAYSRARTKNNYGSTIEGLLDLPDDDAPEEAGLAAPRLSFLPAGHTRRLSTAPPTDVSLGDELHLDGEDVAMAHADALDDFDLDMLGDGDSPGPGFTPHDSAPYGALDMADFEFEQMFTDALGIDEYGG
Chain of Nuclear receptor ROR-gamma (Homo sapiens) (P51449 whole entry): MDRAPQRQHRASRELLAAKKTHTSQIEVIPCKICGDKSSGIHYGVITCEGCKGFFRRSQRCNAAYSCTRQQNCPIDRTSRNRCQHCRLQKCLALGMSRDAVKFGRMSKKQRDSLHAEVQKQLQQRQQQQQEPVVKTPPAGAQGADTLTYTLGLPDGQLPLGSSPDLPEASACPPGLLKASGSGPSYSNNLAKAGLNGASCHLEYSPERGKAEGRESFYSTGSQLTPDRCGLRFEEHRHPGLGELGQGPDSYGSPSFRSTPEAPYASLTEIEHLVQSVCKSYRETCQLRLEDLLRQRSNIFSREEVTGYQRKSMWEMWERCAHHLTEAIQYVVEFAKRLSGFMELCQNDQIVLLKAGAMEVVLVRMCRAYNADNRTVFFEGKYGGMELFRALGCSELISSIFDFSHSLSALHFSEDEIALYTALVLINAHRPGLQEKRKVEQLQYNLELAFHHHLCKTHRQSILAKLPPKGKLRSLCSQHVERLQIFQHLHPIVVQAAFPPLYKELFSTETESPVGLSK

In turn, `CC(C=CC1=C(C)CCCC1(C)C)=CC=CC(C)=CC(=O)O` registered a P-value in test [1] of 0.000127. Besides, the Remaining activity in test [2] worked out at 0.461; in test [3], 0.986; in test [4], 0.532; in test [5] it was 0.531; in test [6], 0.56; in [7], 0.42. The results for the Remaining activity in [8] and in test [9] were 0.503 and 0.42, respectively.
Regarding `Cc1cc(OCC(=O)O)cc(C)c1Cc1ccc(O)c(C(C)C)c1`, in [10], the Relative activation is 0.666%. Moreover, the Remaining activity in test [11] came to 0.638; in [13], 0.672; in [14], 0.496; in [15], 0.57; in test [16] it was 0.623. In addition, the P-value in test [12] turned out to be 0.00063.
The inhibition is the drop in the measured response relative to a control, in per cent. Turning to `CN1CC(C(=O)NCc2ccc3c(-c4cccc(C(N)=S)c4)cn(C4CCN(S(=O)(=O)C(F)(F)F)CC4)c3c2)C1`, in test [17], the inhibition worked out at 60%.
With `CC(C)c1cc(Oc2c(Cl)cc(-n3nc(C#N)c(=O)[nH]c3=O)cc2Cl)n[nH]c1=O`, the Remaining activity in test [18] is 0.569; in test [19], 0.788; in [20], 0.741; in test [21], 0.559; in test [24] it was 0.559. Also, in test [22], the P-value is 0.0087. This compound displayed a Relative activation in [23] of 1.67%.

For the origin of these results see ChEMBL document CHEMBL5715260, “Selectivity Literature for EUbOPEN Chemogenomic Library” (2024).
